Assay results taken from US20030119066A1, “Diagnostic kit for detecting immunogenic response and method of screening” (Novozymes A/S, priority 2001, published 2003).

What was measured:
anti-Savinase® antibody = assay: ELISA of antibody binding capacity of immobilized peptides with sera raised against different proteins; parameters: species or system rabbits, rats, and mice; conditions: biotin-linked peptide on streptavidin plates, sera raised against Alcalase, Subtilisin Novo, Carezyme, Laccase, Natalase, SP722, Lipolase (FIG. 1)
Method: The antibody binding capacity of the two linear peptide sequences, RRFANDHTR (light gray bars) and RRFSNATRA (dark gray bars), were tested in an ELISA assay, by measuring optical density, OD. The sequences were tested for binding to antibodies in sera raised against different proteins. The different proteins are marked by capital letters A through H. A=Alcalase®, B=Savinase®, C=Subtilisin Novo®), D=Carezyme®) (cellulase), E=Laccase, F=Natalase® (amylase), G=SP722 (amylase), H=Lipolase® (lipase).
Specific IgG and IgE levels were determined using the ELISA specific for human, mouse or rat IgG or IgE. Differences between data sets were analysed by using appropriate statistical methods. The assays were performed as known to the expert.
The following sequences were synthezised, and immobilized on biotin, through a linker molecule:
The biotin-complex was immobilized in ELISA well plates, pre-coated with streptavidin. If phages were used, these were directly coated into the ELISA plate wells. ELISA was performed as described elsewhere, on sera from rabbits, rats, and mice raised against Alcalase®, Savinase®, and Subtilisin Novo® as well as a number of less relevant proteins.
In FIG. 1 the reactivity of the selected peptides in terms of antibody binding capacity is shown (ELISA assay). […]

specific antibodies = assay: Phage display library screening for clones binding specific antibodies; conditions: random hexa-, nona- or dodeca peptide phage display library
Excerpt: In a particular method, the identification of antibody binding sequences may be achieved by screening a display package library, particularly a phage display library. The principle behind phage display is that a heterologous DNA sequence can be inserted in the gene coding for a coat protein of the phage (WO 92/15679). The phage will make and display the hybrid protein on its surface where it can interact with specific target agents. Such target agent may be antigen-specific antibodies. It is therefore possible to select specific phages that display antibody-binding peptide sequences. […] Thus, by screening for antibody binding, one can isolate the peptide sequences that have sufficiently high affinity for the particular antibody used. The peptides of the hybrid proteins of the specific phages which bind protein-specific antibodies characterize epitopes that are recognized by the immune system.
From a phage display library expressing random hexa-, nona- or dodeca peptides as part of their membrane proteins, specific phage clones were isolated capable of binding specific antibodies. […] The amino acid sequence of the corresponding oligopeptide was deduced from the DNA sequence.

| Substance | reactivity (antibody binding capacity, optical density, OD) (anti-Savinase® antibody) | antibody binding of phage-displayed peptide (specific antibodies) |
| --- | --- | --- |
| R R F A N D H T R (RRFANDHTR) | Reactivity was observed with anti-Savinase® antibody only | – |
| R R F S N A T R A (RRFSNATRA) | Reactivity was observed with anti-Savinase® antibody only | – |
| VQVYGDTSA | – | specific antibody binding peptide |
